Measurements published in publication PMC11620503 (Antimicrobial Agents and Chemotherapy, 2024).
Values joined by “and” are separate entries in the source; they are usually repeats but may differ in a detail not shown here. Identical values can stand only once. Like-named read-outs stand apart in the source and are kept apart here.

What was measured:
[1] = biological target: NDM-6 (Klebsiella pneumoniae, UniProt C7C422, A233V); assay: Ki app determination (Waley's method)
[2] = biological target: OXA-65 (Acinetobacter baumannii, UniProt Q58XD3); assay: Ki app determination (Waley's method)
[3] = biological target: IMP-6 (Serratia marcescens, UniProt P52699, S214G); assay: Ki app determination (Waley's method)
[4] = biological target: VIM-1 (Pseudomonas aeruginosa, UniProt A0A0F7KYQ8); assay: Ki app determination (Waley's method)
[5] = biological target: SHV-2 (Klebsiella pneumoniae, UniProt P0A9Z8); assay: Ki app determination (Waley's method)
[6] = biological target: CTX-M-15 (Escherichia coli, UniProt Q9EXV5); assay: Ki app determination (Waley's method)
[7] = biological target: IMP-1 (Serratia marcescens, UniProt P52699); assay: Ki app determination (Waley's method)
[8] = biological target: VIM-2 (Escherichia coli, UniProt Q5U7L7); assay: Ki app determination (Waley's method)
[9] = biological target: OXA-66 (Acinetobacter baumannii, UniProt Q58XD2); assay: Ki app determination (Waley's method)
[10] = biological target: NDM-4 (Klebsiella pneumoniae, UniProt C7C422, M154L); assay: Ki app determination (Waley's method)
[11] = biological target: NDM-1 (Klebsiella pneumoniae, UniProt C7C422); assay: Ki app determination (Waley's method)
[12] = biological target: NDM-7 (Klebsiella pneumoniae, UniProt C7C422, D130N/M154L); assay: Ki app determination (Waley's method)
[13] = biological target: CTX-M-27 (Escherichia coli, UniProt Q840M4); assay: Ki app determination (Waley's method)
[14] = biological target: CTX-M-14 (Escherichia coli, UniProt Q9L5C7); assay: Ki app determination (Waley's method)
[15] = biological target: SHV-12 (Klebsiella pneumoniae, UniProt P0A3M1, L31Q); assay: Ki app determination (Waley's method)
[16] = biological target: NDM-5 (Klebsiella pneumoniae, UniProt C7C422, M154L/V88L); assay: Ki app determination (Waley's method)
[17] = biological target: OXA-72 (Acinetobacter baumannii, UniProt Q5XQU0); assay: Ki app determination (Waley's method)
[18] = biological target: SHV-5 (Klebsiella pneumoniae, UniProt P0A3M1); assay: Ki app determination (Waley's method)
[19] = biological target: OXA-24 (Acinetobacter baumannii, UniProt Q8RLA6); assay: Ki app determination (Waley's method)
[20] = biological target: OXA-23 (Acinetobacter baumannii, UniProt Q9L4P2); assay: Ki app determination (Waley's method)
[21] = biological target: KPC-2 (Klebsiella pneumoniae, UniProt Q9F663); assay: Ki app determination (Waley's method)
[22] = biological target: OXA-48 (Klebsiella pneumoniae, UniProt Q6XEC0); assay: Ki app determination (Waley's method)
[23] = biological target: KPC-38 (Klebsiella pneumoniae, UniProt Q9F663); assay: Ki app determination (Waley's method); settings: read-out: Ki app, means from three independent studies
[24] = biological target: KPC-3 (Klebsiella pneumoniae, UniProt Q9F663, H272Y); assay: Ki app determination (Waley's method)
[25] = test system: MEM-, imipenem/relebactam-, and ceftolozane/tazobactam-nonsusceptible P. aeruginosa; assay: MIC, broth microdilution; assay type: cell-based, Pseudomonas aeruginosa
[26] = test system: 207 Enterobacterales including carbapenem-resistant isolates; assay: MIC, broth microdilution; assay type: cell-based; settings: All Enterobacterales (207), cefiderocol 205 isolates
[27] = test system: serine-carbapenemase-producing isolates (Enterobacterales); assay: MIC, broth microdilution; assay type: cell-based; settings: Enterobacterales with serine-carbapenemases (80); fixed concentration (μg/mL) in label
[28] = test system: MEM-nonsusceptible Enterobacterales with metallo-carbapenemases; assay: MIC, broth microdilution; assay type: cell-based; settings: MEM-nonsusceptible Enterobacterales with metallo-carbapenemases (55), cefiderocol 54 isolates
[29] = test system: 96 P. aeruginosa; assay: MIC, broth microdilution; assay type: cell-based, Pseudomonas aeruginosa; settings: Pseudomonas aeruginosa (96)
[30] = test system: MEM-nonsusceptible Enterobacterales with serine-carbapenemases; assay: MIC, broth microdilution; assay type: cell-based; settings: MEM-nonsusceptible Enterobacterales with serine-carbapenemases (58)
[31] = test system: MEM-nonsusceptible Enterobacterales; assay: MIC, broth microdilution; assay type: cell-based; settings: MEM-nonsusceptible Enterobacterales (127), cefiderocol 126 isolates
[32] = test system: 55 isolates of A. baumannii; assay: MIC, broth microdilution; assay type: cell-based, Acinetobacter baumannii; settings: Acinetobacter baumannii (55)
[33] = test system: MBL-producing isolates (Enterobacterales); assay: MIC, broth microdilution; assay type: cell-based
[34] = MEM-nonsusceptible Pseudomonas aeruginosa (76), CLSI breakpoints, marked c: breakpoints for β-lactam alone
[35] = MEM-nonsusceptible Pseudomonas aeruginosa (76), fixed concentration (μg/mL) in label
[36] = CLSI breakpoints, marked c: breakpoints for β-lactam alone, tigecycline: FDA breakpoints
[37] = fixed concentration (μg/mL) in label
[38] = CLSI breakpoints, marked c: breakpoints for β-lactam alone
[39] = Enterobacterales with metallo-carbapenemases (74), cefiderocol 73 isolates, CLSI breakpoints, marked c: breakpoints for β-lactam alone, tigecycline: FDA breakpoints
[40] = Enterobacterales with metallo-carbapenemases (74), cefiderocol 73 isolates, fixed concentration (μg/mL) in label

## NC(=O)[C@@H]1CC[C@@H]2CN1C(=O)N2OS(=O)(=O)O [Avibactam, avibactam]
[1]
  Ki: > 100000 nM
[2]
  Ki: 5900 nM
[3]
  Ki: > 100000 nM
[4]
  Ki: > 100000 nM
[5]
  Ki: 2.26 ± 1.44 nM
[6]
  Ki: 0.369 ± 0.0569 nM
[7]
  Ki: > 100000 nM
[8]
  Ki: > 100000 nM
[9]
  Ki: 7350 nM
[10]
  Ki: > 100000 nM
[11]
  Ki: > 100000 nM
[12]
  Ki: > 100000 nM
[13]
  Ki: 1.29 ± 0.663 nM
[14]
  Ki: 2.35 ± 0.763 nM
[15]
  Ki: 2.55 ± 0.696 nM
[16]
  Ki: > 100000 nM
[17]
  Ki: 691 ± 63.8 nM
[18]
  Ki: 2.15 ± 0.264 nM

## O=C(NC1CCNCC1)[C@@H]1CC[C@@H]2CN1C(=O)N2OS(=O)(=O)O [Relebactam, relebactam]
[1]
  Ki: > 100000 nM
[2]
  Ki: > 100000 nM
[3]
  Ki: > 100000 nM
[19]
  Ki: > 100000 nM
[4]
  Ki: > 100000 nM
[5]
  Ki: 0.373 ± 0.0856 nM
[6]
  Ki: 0.841 ± 0.235 nM
[7]
  Ki: > 100000 nM
[8]
  Ki: > 100000 nM
[9]
  Ki: > 100000 nM
[10]
  Ki: > 100000 nM
[11]
  Ki: > 100000 nM
[12]
  Ki: > 100000 nM
[13]
  Ki: 3.62 ± 1.2 nM
[20]
  Ki: 5640 nM
[14]
  Ki: 5.96 ± 3.22 nM
[15]
  Ki: 19.3 ± 6.32 nM
[16]
  Ki: > 100000 nM
[17]
  Ki: ≥ 37400 nM
[18]
  Ki: 6.26 ± 1.53 nM

## C[C@]1(Cn2ccnn2)[C@H](C(=O)O)N2C(=O)C[C@H]2S1(=O)=O [Tazobactam, tazobactam]
[1]
  Ki: > 100000 nM
[2]
  Ki: > 100000 nM
[3]
  Ki: > 100000 nM
[19]
  Ki: 100 ± 45.6 nM
[4]
  Ki: > 100000 nM
[5]
  Ki: 0.187 ± 0.104 nM
[6]
  Ki: 0.0387 ± 0.00434 nM
[7]
  Ki: > 100000 nM
[8]
  Ki: > 100000 nM
[9]
  Ki: > 100000 nM
[10]
  Ki: > 100000 nM
[11]
  Ki: > 100000 nM
[21]
  Ki: 159 ± 48.2 nM
[12]
  Ki: > 100000 nM
[13]
  Ki: 0.0403 ± 0.0162 nM
[22]
  Ki: 5.32 ± 0.329 nM
[20]
  Ki: 14 ± 5.31 nM
[23]
  Ki: 112 ± 14.5 nM
[24]
  Ki: 270 ± 80.8 nM
[15]
  Ki: 1.68 ± 0.266 nM
[16]
  Ki: > 100000 nM
[17]
  Ki: 78.9 ± 8.96 nM
[18]
  Ki: 1.84 ± 0.243 nM

## colistin
[25]
  CLSI MIC interpretation I (intermediate): 100%
  CLSI MIC interpretation R (resistant): 0%
  MIC50: 1 µg/mL
  MIC90: 1 µg/mL
  MIC Range: 0.5 to 2 µg/mL and 0.25 to 2 µg/mL
[25]; I, intermediate (including susceptible dose-dependent), CLSI breakpoints, last subgroup of Table 2
  CLSI MIC interpretation (%) I: 100%
[25]; [34]
  CLSI MIC interpretation I (intermediate): 100%
  CLSI MIC interpretation R (resistant): 0%
[25]; [35]
  MIC50: 1 µg/mL
  MIC90: 1 µg/mL
  MIC Range: 0.25 to 2 µg/mL
[25]; R, resistant, CLSI breakpoints, last subgroup of Table 2
  CLSI MIC interpretation (%) R: 0%
[25]; Table 2, broth microdilution
  MIC50: 1 µg/mL
  MIC90: 1 µg/mL
[26]; [36]
  CLSI MIC interpretation I (intermediate): 78.3%
  CLSI MIC interpretation R (resistant): 21.7%
[26]; [37]
  MIC50: 0.5 µg/mL
  MIC90: >64 µg/mL
[27]
  MIC50: 0.5 µg/mL
  MIC90: >64 µg/mL
[28]; [36]
  CLSI MIC interpretation R (resistant): 14.5%
[28]; [37]
  MIC50: 0.5 µg/mL
  MIC90: 8 µg/mL
[29]; [38]
  CLSI MIC interpretation I (intermediate): 100%
  CLSI MIC interpretation R (resistant): 0%
[29]; [37]
  MIC50: 1 µg/mL
  MIC90: 1 µg/mL
  MIC Range: 0.25 to 2 µg/mL
[30]; [36]
  CLSI MIC interpretation I (intermediate): 74.1%
  CLSI MIC interpretation R (resistant): 25.9%
[30]; [37]
  MIC50: 0.5 µg/mL
  MIC90: >64 µg/mL
[31]; [36]
  CLSI MIC interpretation I (intermediate): 77.2%
  CLSI MIC interpretation R (resistant): 22.8%
[31]; [37]
  MIC50: 0.5 µg/mL
  MIC90: >64 µg/mL
[32]; [38]
  CLSI MIC interpretation I (intermediate): 94.5%
  CLSI MIC interpretation R (resistant): 5.5%
[32]; [37]
  MIC50: 1 µg/mL
  MIC90: 2 µg/mL
[33]; [39]
  CLSI MIC interpretation I (intermediate): 89.2%
  CLSI MIC interpretation R (resistant): 10.8%
[33]; [40]
  MIC50: 0.5 µg/mL
  MIC90: 4 µg/mL
[33]; MBL-producing isolates, comparators
  MIC90: ≤ 4 µg/mL
